We go through six molecules from ChEMBL document CHEMBL1201862, “PubChem BioAssay data set” (2004).

Assay [1] is described as follows: inhibitors of intracellular T. cruzi replication, confirmation, NIH3T3 host cells, beta-gal luminescence (AID 2044).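 Further: intracellular parasites grown in NIH/3T3 mouse fibroblasts as host cells; luminescent beta-galactosidase reporter signal from transgenic T. cruzi replicating inside host cells; inhibitors lower the luminescence signal.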 The class given is functional, cell-based.
Assay [2] addresses T1, High affinity choline transporter 1 (Homo sapiens, UniProt Q9GZV3).
T1 sequence (Q9GZV3 whole entry): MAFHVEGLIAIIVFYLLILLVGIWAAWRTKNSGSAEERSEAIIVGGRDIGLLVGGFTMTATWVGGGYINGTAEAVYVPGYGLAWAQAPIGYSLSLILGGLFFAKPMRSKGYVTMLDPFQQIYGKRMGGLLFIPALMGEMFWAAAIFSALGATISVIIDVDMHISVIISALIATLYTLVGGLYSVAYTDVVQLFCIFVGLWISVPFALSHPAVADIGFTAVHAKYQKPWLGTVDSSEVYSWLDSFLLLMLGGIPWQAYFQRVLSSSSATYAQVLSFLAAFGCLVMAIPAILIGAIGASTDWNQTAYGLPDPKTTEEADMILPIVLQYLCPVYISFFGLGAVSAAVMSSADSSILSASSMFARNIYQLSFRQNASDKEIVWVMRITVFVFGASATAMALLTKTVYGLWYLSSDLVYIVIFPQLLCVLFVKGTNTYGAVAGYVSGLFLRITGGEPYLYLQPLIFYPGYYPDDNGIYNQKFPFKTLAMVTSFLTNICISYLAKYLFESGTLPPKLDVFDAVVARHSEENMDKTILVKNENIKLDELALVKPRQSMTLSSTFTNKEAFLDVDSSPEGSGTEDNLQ
In words: CHT inhibitors, dose response, cell-based, 5-point CRC, membrane potential dye (AID 504840). The class given is functional.

In a further assay the target is T2, Hexokinase-1 (Homo sapiens, UniProt P19367).
T2 sequence (P19367 whole entry): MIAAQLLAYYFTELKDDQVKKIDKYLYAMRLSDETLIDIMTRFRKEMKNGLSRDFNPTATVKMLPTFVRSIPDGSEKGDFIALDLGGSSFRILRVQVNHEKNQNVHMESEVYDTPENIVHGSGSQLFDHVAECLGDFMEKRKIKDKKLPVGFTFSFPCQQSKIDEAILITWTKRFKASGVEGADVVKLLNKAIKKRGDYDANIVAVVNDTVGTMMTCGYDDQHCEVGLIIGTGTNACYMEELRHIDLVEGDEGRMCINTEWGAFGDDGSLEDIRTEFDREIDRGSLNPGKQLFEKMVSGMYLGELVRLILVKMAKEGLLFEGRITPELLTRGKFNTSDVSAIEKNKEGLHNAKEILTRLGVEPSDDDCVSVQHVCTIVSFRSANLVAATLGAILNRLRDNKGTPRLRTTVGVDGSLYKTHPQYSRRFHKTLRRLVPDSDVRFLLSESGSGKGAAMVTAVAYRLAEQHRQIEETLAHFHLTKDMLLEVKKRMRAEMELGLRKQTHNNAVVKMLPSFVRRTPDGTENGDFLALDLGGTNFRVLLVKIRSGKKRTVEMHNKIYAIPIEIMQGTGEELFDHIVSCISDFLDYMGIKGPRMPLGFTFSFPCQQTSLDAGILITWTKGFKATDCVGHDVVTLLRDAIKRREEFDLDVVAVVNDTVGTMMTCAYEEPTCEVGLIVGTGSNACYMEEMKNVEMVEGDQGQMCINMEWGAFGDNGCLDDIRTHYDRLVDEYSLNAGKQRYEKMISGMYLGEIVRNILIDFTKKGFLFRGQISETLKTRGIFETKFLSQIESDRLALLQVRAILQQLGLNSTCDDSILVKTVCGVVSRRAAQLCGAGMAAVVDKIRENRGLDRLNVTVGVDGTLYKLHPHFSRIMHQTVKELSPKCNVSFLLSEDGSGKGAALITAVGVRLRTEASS
Put plainly: hexokinase 1 activators, dose response, selectivity assay for HKDC1 activator project, biochemical (AID 504762). It is filed as functional.

Assay [3] can be described thus: growth suppression of PTEN-null colon cells, dose response, cell-based, HCT116 PTEN knockout (AID 1047).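 Further: HCT116 colon tumor cells with PTEN knocked out; cells exposed to compound for 60 hours before readout; potency for loss of cell viability measured by luminescence.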 It is filed as functional.
Assay [4] can be described thus: inhibitors of SNCA 5'UTR-driven reporter translation, confirmation, H4 neuroglioma cells, luminescence (AID 1988). The class given is functional, cell-based.
Assay [5] is described as follows: Luminescence Cell-Based Dose Response HTS to Identify Inhibitors of 5'UTR Stem-Loop Driven Prion Protein mRNA Translation in H4 Neuroglioblastoma Cells. [Related pubchem assays: 1827 (Project Summary), 1813 (Primary HTS)]. The class given is functional.
Another assay addresses Paired box protein Pax-8 (Homo sapiens, UniProt Q06710). Put plainly: inhibitors of PAX8-driven TPO luciferase reporter, dose response, RMG-I cells, cherry-pick (AID 687027).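 Further: luciferase reporter driven by Pax8 target thyroperoxidase promoter measured by SteadyGlo luminescence.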 It is filed as functional, cell-based.
The target of assay [6] is T3, Tyrosyl-DNA phosphodiesterase 2 (Homo sapiens, UniProt O95551).
T3 sequence (O95551 whole entry): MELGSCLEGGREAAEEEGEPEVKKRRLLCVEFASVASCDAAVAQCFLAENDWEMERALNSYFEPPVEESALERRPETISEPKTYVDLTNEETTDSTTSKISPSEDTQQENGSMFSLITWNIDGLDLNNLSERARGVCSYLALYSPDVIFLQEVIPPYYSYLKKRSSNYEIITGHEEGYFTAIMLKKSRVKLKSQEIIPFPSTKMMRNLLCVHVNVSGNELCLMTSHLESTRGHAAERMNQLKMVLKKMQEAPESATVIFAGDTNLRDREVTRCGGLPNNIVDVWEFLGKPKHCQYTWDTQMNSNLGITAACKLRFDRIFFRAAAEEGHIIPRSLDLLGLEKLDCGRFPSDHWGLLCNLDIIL
Put plainly: human TDP2 enzyme inhibitors, dose response, biochemical, epi absorbance, IC50 (AID 743297).

Assay [7] can be described thus: non-specific cell cytotoxicity, dose response, cytotoxicity control for PAX8 inhibitor project, plate reader, dry powder samples (AID 743021). It is filed as functional, cell-based.
In another assay the target is Activated CDC42 kinase 1 (Homo sapiens, UniProt Q07912). Put plainly: Navigating the Kinome. Panel member name: ACK1. The class given is functional.
Assay [8] has as its target Non-receptor tyrosine-protein kinase TYK2 (Homo sapiens, UniProt P29597). The class given is functional.
For assay [9], the target named is ALK tyrosine kinase receptor (Homo sapiens, UniProt Q9UM73). It is filed as functional.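 Further: ALK tested as one member of a kinase panel screen.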
Assay [10] addresses Interleukin-1 receptor-associated kinase 4 (Homo sapiens, UniProt Q9NWZ3). The class given is functional.
The target in assay [11] is Cyclin-dependent kinase 1 (Homo sapiens, UniProt P06493). It is filed as functional.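 Further: Kinome-wide panel profiling, with the target listed as panel member CDC2.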
Chain of Cyclin-dependent kinase 1 (P06493 whole entry): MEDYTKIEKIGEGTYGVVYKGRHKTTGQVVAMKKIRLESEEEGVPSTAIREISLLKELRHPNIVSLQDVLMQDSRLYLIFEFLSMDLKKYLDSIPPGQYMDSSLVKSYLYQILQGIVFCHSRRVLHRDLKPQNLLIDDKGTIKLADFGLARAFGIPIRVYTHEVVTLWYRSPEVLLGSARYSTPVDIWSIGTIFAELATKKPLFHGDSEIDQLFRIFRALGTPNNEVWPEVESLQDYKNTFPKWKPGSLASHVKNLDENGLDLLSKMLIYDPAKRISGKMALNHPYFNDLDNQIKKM
The target in assay [12] is Kappa-type opioid receptor (Homo sapiens, UniProt P41145). The class given is functional.
Chain of Kappa-type opioid receptor (P41145 whole entry): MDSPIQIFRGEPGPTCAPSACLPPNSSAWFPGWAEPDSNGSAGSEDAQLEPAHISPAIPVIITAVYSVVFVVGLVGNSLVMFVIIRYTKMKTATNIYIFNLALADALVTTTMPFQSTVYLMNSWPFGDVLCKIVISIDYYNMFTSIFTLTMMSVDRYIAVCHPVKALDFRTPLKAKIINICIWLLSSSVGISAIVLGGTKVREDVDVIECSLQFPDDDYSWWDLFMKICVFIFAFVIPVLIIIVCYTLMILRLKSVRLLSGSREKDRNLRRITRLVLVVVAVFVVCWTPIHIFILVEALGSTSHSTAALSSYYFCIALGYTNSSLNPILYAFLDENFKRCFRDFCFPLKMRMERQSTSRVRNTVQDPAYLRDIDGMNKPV
For another assay, the target named is Beta-galactosidase (Escherichia coli, UniProt Q8VNN2). The class given is functional.
Chain of Beta-galactosidase (Q8VNN2 whole entry): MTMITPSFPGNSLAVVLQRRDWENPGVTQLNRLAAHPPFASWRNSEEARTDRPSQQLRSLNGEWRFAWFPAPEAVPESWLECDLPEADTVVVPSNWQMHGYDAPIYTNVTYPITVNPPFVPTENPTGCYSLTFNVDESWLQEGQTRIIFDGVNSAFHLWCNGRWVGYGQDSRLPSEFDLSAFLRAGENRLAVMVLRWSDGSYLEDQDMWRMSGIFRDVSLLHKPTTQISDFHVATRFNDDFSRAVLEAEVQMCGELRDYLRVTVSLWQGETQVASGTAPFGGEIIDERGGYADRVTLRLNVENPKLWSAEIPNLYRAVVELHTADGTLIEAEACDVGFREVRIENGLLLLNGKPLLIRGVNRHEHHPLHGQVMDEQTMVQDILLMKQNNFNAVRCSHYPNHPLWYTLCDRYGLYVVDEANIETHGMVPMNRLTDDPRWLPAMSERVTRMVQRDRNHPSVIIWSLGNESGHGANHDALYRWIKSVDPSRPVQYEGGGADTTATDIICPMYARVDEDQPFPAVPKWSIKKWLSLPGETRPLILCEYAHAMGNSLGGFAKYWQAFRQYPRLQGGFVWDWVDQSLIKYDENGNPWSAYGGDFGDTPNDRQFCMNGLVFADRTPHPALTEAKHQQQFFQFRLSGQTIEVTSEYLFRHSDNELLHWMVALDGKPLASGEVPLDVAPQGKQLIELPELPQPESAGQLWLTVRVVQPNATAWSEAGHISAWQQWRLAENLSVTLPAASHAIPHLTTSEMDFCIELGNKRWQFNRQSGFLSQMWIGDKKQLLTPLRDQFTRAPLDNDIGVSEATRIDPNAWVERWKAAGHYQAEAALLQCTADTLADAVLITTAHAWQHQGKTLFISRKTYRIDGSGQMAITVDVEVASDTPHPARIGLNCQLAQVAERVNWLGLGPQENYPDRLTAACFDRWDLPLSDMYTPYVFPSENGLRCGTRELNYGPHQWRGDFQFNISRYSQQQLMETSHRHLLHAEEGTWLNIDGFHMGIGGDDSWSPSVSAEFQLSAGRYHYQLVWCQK
The next assay deals with Nonstructural protein 1 (Influenza A virus, UniProt Q194T2). It is filed as functional, Influenza A virus (A/California/07/2009(H1N1)).
For a further assay, the target named is LIM domain kinase 1 (Homo sapiens, UniProt P53667). Put plainly: Navigating the Kinome. Panel member name: LIMK1. The class given is functional.
Chain of LIM domain kinase 1 (P53667 whole entry, the tested form may be a part, canonical isoform): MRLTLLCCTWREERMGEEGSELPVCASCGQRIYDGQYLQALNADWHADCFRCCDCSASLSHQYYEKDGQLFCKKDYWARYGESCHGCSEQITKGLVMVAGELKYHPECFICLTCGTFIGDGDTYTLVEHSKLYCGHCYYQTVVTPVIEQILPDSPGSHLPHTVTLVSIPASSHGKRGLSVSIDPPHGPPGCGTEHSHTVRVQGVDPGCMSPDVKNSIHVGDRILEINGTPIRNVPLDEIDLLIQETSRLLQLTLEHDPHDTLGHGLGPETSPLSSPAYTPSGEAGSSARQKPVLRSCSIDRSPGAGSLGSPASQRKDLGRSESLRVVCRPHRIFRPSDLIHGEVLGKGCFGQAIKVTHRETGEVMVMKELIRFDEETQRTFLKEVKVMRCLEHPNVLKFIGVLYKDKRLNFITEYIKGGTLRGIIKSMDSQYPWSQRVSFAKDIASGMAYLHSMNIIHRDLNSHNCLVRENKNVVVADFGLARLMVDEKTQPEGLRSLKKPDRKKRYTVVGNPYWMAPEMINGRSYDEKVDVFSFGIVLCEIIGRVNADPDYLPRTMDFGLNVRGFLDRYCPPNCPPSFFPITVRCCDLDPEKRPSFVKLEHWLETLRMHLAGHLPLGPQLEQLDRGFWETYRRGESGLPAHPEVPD
Assay [13] addresses Casein kinase I isoform delta (Homo sapiens, UniProt P48730). The class given is functional.

Molecules are shown by their SMILES. Calls of active or inactive are those of the source.

Chain of Non-receptor tyrosine-protein kinase TYK2 (P29597 whole entry): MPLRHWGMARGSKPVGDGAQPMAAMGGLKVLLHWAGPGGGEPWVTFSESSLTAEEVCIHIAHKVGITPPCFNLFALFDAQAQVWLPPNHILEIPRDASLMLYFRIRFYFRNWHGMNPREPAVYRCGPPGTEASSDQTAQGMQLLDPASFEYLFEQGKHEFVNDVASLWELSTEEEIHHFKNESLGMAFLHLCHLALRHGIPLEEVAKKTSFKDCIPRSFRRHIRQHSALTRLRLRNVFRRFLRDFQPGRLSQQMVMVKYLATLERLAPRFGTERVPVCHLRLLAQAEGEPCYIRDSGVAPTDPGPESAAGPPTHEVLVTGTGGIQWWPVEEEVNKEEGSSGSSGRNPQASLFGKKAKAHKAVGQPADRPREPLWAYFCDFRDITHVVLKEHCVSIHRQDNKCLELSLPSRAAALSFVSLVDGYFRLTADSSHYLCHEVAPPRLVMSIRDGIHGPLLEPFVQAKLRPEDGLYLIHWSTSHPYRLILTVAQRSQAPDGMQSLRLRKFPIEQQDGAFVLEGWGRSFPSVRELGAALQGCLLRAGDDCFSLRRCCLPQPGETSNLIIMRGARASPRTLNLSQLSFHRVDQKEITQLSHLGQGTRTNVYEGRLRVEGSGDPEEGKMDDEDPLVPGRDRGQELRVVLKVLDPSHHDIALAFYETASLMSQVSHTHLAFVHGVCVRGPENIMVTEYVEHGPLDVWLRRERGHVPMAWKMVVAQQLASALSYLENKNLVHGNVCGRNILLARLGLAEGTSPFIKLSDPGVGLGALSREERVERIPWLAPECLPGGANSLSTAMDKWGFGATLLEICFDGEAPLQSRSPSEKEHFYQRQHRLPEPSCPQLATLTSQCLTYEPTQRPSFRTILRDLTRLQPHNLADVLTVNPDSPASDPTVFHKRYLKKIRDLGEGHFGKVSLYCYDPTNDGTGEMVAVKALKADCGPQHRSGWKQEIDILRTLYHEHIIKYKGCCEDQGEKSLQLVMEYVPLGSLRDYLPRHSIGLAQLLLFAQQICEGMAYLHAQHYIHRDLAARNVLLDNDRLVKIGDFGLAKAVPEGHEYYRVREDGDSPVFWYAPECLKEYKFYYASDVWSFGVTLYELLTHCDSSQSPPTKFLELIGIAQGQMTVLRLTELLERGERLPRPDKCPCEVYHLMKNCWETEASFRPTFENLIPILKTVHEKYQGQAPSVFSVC
Chain of Casein kinase I isoform delta (P48730 whole entry, canonical isoform): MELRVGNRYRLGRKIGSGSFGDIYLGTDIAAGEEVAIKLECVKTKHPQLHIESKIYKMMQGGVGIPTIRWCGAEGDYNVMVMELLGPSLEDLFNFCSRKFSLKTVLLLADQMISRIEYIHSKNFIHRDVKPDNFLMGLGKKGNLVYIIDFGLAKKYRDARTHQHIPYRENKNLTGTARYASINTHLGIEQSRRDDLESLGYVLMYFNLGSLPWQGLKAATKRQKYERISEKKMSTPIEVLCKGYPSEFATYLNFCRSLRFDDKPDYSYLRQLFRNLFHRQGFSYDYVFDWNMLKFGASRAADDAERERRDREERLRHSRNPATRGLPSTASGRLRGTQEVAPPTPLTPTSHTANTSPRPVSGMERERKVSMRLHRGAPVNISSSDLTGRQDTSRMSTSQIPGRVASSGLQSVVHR
Chain of Paired box protein Pax-8 (Q06710 whole entry): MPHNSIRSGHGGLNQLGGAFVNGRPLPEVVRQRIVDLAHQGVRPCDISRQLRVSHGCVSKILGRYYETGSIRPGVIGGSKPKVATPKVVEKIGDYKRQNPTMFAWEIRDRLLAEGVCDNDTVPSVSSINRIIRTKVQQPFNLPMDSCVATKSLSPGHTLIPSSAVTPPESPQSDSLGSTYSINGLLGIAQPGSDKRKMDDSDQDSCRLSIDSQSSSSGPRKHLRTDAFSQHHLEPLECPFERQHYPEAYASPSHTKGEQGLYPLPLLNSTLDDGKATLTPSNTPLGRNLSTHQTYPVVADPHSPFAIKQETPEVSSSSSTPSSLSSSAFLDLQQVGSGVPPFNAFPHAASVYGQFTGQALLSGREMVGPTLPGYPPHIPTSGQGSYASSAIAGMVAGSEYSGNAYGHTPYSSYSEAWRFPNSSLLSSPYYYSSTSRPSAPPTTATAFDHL
Chain of Interleukin-1 receptor-associated kinase 4 (Q9NWZ3 whole entry): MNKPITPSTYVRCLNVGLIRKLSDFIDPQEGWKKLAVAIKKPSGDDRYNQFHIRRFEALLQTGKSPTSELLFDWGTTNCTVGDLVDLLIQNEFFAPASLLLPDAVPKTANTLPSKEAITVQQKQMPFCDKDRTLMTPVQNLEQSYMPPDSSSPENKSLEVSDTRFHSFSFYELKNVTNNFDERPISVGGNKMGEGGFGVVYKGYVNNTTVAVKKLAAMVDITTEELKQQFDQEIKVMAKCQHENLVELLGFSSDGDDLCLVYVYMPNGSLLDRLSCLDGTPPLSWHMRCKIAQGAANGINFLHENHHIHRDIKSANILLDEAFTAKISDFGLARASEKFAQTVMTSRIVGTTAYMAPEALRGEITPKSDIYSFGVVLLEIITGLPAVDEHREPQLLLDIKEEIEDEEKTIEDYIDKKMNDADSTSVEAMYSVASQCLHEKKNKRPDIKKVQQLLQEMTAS

What is called EC50 is the concentration needed to bring the measured effect to its halfway point. What is called IC50 is the concentration at which inhibition is half-maximal. As to `O=C(O)c1ccc(NC2=C(Cl)C(=O)c3ccccc3C2=O)cc1`, the EC50 in assay [1] was 2.74 µM (active); at Hexokinase-1 it was 10.6 µM (active). In assay [2], the 50% inhibitory concentration (IC50) is 14.5 µM (active).
Turning to `O=C(O)c1ccc2c3c(ncnc13)-c1ccccc1C2=O`, the EC50 in assay [3] was 16.1 µM (active); in [4], 2.45 µM (active); in assay [5], 1.32 µM (active).
For orientation: AC50 means the concentration at which the activity in the assay is half-maximal. For `CCOC(=O)c1c2c(n(Cc3ccccc3)c1C)C(=O)C(=O)c1ccccc1-2`, the AC50 at Paired box protein Pax-8 was 1.98 µM (active); in [7] it was 15.7 µM (active). For the same molecule, the IC50 in [6] is 4.78 µM (active).
By Ki is commonly meant a dissociation constant, usually derived from enzyme kinetics or from competition with a known ligand. Take `Cc1ccc2nccc(NC(=O)Nc3cccc(C(F)(F)F)n3)c2c1`: the Ki at Activated CDC42 kinase 1 is > 3.98 µM (inactive); in assay [8] it was > 2 µM (inactive); in assay [9], > 3.98 µM (inactive); in assay [10], > 10 µM (inactive); in assay [11] it was 0.501 µM (active).
For the molecule `Cc1c(/N=C2\C=CC(=O)c3ccccc32)c(=O)n(-c2ccccc2)n1C`, the results for the IC50 (in [12]; on Nonstructural protein 1) were 12.1 µM (active) and 28.7 µM (active), respectively. Besides, the EC50 at Beta-galactosidase is > 31.5 µM (inactive).
Take `COc1cc2c(cc1F)C(c1ccccc1Cl)=Nc1c(n[nH]c1C)N2` [RG-1530]: the values for the Ki (on LIM domain kinase 1; in [13]) were 0.501 µM (active) and > 7.94 µM (inactive), respectively.
